Data set [1] concerns Hela. Nature of the data set: inhibition of growth of cell lines (IC50 categories). The following applies: Homo sapiens. Type of data set: cell-based. On the procedure:
(§1) This example provides a table (below) of the compounds of the present disclosure and their activity towards four different cell lines (i.e., CWR22R, Hela, PC3, and MDA-MB-231). The IC50 for inhibition of growth is divided into 4 categories: A<1 μM, B 1-5 μM, […], D>20 μM.
(§2) All compounds were tested for toxicity using 4 cells lines, target cells-CWR22R and non-target cells, Hela, PC3 and MDA-MB-231 (FIGS. 1A-F).

Data set [2] concerns CWR22R. The description is as above. Type of data set: cell-based. The following applies: Homo sapiens, 22Rv1. On the procedure: as §1, §2
The subject of data set [3] is MDA-MB-231. The data set is described as above. Type of data set: cell-based. The note with it: Homo sapiens. The method, then: as §1, §2
Data set [4] has as its system PC3. Described as above. It is filed as cell-based. The following applies: Homo sapiens, PC-3. The method, then:
as §1, §2

A short description of data set [5]: solubility for in vivo administration. Type of data set: physicochemical.
The nature of data set [6]: plasma concentration after intravenous and intraperitoneal injections (PK). The following applies: for bioavailability through IP injection: IP versus IV, doses 50-100 mg/kg; for course of plasma concentration: after intravenous and intraperitoneal injections, 50-100 mg/kg. It is filed as in vivo.
The test system of data set [7] is CWR22R tumors. Nature of the data set: in vivo efficacy, subcutaneous xenografts of CWR22R cells in SCID mice. On the procedure: (§3) We tested these compounds in an in vivo efficacy experiment using model of CRPC in SCID mice, CWR22R. Two compounds, PLA1079 and 1125, which were synthesized in the amount of 500 mg were tested in full scale experiment with either 5 IV daily injections or 10 IP daily injections. After 5 IP or IV injections intra-tumor concentration of the compounds were measured in few mice from this experiment.
(§4) Two other compounds, PLA1148 and 1098 (PK testing in FIGS. 8 and 9) were tested in a small scale efficacy experiment. Upon PK testing of the compound PLA1148 one mouse was injected twice with 10 min interval. However the concentration of the drug in plasma of this mouse was not twice, but >4 times higher than in mice injected once. […] It was decided to utilize this observation in an attempt to get higher plasma and tumor concentration of both compounds. Therefore in the pilot efficacy experiment in the same model of CWR22R cells mice were treated with 2 IP injections with 10 minute interval. Treatment with PLA1098 was carried out for two days. […] However this is so far the highest concentration found in tumor.
Pilot efficacy experiments were run for compounds: PLA1163, PLA1148 using the same model of subcutaneous xenografts of CWR22R cells in SCID mice (FIGS. 18 and 19).

The test system of data set [8] is CWR22R cells. It is filed as cell-based. On the procedure:
as §2
LC50 data of in vitro 72 hours cytotoxicity assay are included in this table for comparison.

Data set [9] is described as follows: tissue drug concentrations in mice bearing CWR22R tumors. It is filed as in vivo, SCID mice. The method, then: as §3
as §4, with “tumor. […]” for “tumor.”

The nature of data set [10]: toxicity observed in mice of the pilot efficacy experiments. It is filed as in vivo. The note with it: 2 IP injections with 10 minute interval, one day. The method, then: as §4
This compound may be also potentially promising.

A short description of data set [11]: aqueous solubility (pH 7.4). Type of data set: physicochemical.
Data set [12] is described as follows: metabolic stability in the presence of mouse liver microsomes. It is filed as in vitro ADME. On the procedure: 8 compounds were selected based on the solubility and metabolic stability as well as considering chemical diversity to test for time dependence stability in the presence of mouse […] (FIG. 2). […] Two compounds, PLA1190 and 1197, have desirable metabolic stability, 70 and 77% left after 30 minute incubation with mouse liver microsome respectively. Formulations for in vivo administration were developed for 4 compounds, PLA1079, 1125, 1098 and 1148.

Setting [13] is: one mouse at 24 hours after injections.

We go through 27 compounds from patent publication US20160368872A1, “COMPOUNDS AND METHODS FOR TREATING CANCERS” (HEALTH RESEARCH, INC., priority 2013, published 2016).

As for `Cn1ncc2c(ccc3c2c2ncccc2n3CCCF)c1=O` [Compound 10-7], the IC50 in [1] was over 20 µM; in data set [2], under 1 µM; in [3], 5 to 20 µM; in data set [4], over 20 µM.
Turning to `CCCn1c2cccnc2c2c3ccn(C)c(=O)c3ccc21` [Compound 10-9], the IC50 in [1] is over 20 µM; in data set [2], under 1 µM; in data set [3], over 20 µM; in data set [4], over 20 µM.
`Cn1ccc2c(ccc3c2c2ncccc2n3CCCF)c1=O` [Compound 10-10]: the IC50 in data set [1] was over 20 µM; in data set [2], under 1 µM; in data set [3], over 20 µM; in data set [4] it was over 20 µM.
Take `CCCn1c2cccnc2c2c3c(ccc21)C(=O)NCC3` [Compound 11-1, 7-Propyl-1,2,3,7-tetrahydro-3,7,11-triazabenzo[c]fluoren-4-one]: the IC50 was over 20 µM in [1], 5 to 20 µM in data set [2], over 20 µM in [3] and over 20 µM in data set [4].
`O=C1NCCc2c1ccc1c2c2ncccc2n1CCCF` [Compound 11-2]: the IC50 in [1] was over 20 µM; in data set [2], under 1 µM; in data set [3], over 20 µM; in [4] it was over 20 µM.
For `O=C1NCCOc2c1ccc1c2c2ncccc2n1CCCF` [Compound 11-3], the IC50 in [1] is over 20 µM; in [2] it was 1 to 5 µM; in data set [3] it was over 20 µM; in data set [4], over 20 µM.
With `CCCn1c2cccnc2c2c3cc[nH]c(=O)c3ccc21` [Compound 12-1, 7-Propyl-3,7-dihydro-3,7,11-triazabenzo[c]fluoren-4-one], the IC50 is over 20 µM in [1], 5 to 20 µM in [2], over 20 µM in data set [3] and over 20 µM in [4].
Consider `O=c1[nH]ccc2c1ccc1c2c2ncccc2n1CCCF` [Compound 13-1, 7-(3-Fluoropropyl)-3,7-dihydro-3,7,11-triaza-benzo[c]fluoren-4-one], for which the IC50 in data set [1] is over 20 µM; in [2] it was under 1 µM; in data set [3] it was over 20 µM; in data set [4], over 20 µM.
With `O=C1COc2c(ccc3c2c2ncccc2n3CCCF)N1` [Compound 13-2], the concentration for half-maximal inhibition (IC50) in data set [1] was over 20 µM; in data set [2], 5 to 20 µM; in data set [3], over 20 µM; in data set [4] it was over 20 µM.
As to `CN1Cc2c(ccc3c2c2ncccc2n3CCCF)C1=O` [Compound 14-1, 6-(3-Fluoropropyl)-2-methyl-1,2-dihydro-6H-2,6,10-triazacyclopenta[c]fluoren-3-one], the IC50 in [1] was over 20 µM; in data set [2], under 1 µM; in [3] it was 5 to 20 µM; in data set [4] it was over 20 µM.
For the compound `O=c1[nH]ccc2c1ccc1c2c2ncccc2n1CCC(F)F` [Compound 15-1, 7-(3,3-Difluoropropyl)-3,7-dihydro-3,7,11-triaza-benzo[c]fluoren-4-one], the IC50 in data set [1], in [2], in [3] and in data set [4] was over 20 µM throughout.
For `CCCn1c2ccccc2c2c3cc[nH]c(=O)c3ccc21` [PLA1099], in data set [5], the solubility entry is given as “poorly soluble”.
Still for that read-out and setting: with `O=c1[nH]ccc2c1ccc1c2c2ccccc2n1CCCF` [PLA1121] the entry was “poorly soluble”.
On to `FCCCn1c2ccccc2c2cc(-c3nnco3)ccc21` [PLA1125], for which, in [6], the “bioavailability through IP injection” value is on record as “very high bioavailability” and the “course of plasma concentration” value is listed as “fast reduction of concentration during the first hour”. Also, in data set [7] (5 IV daily injections or 10 IP daily injections), the in vivo efficacy entry was “absence of in vivo efficacy”. The same compound gave a CC50 in [8] of 0.1 µM. For the same compound, the “Tumor concentration” value in [9] (100 mg/kg, IP/IV) is 7 to 10 nM.
Take `O=C1NCCc2c1ccc1c2c2ncccc2n1CCCF` [PLA1148]: in data set [6], the “bioavailability through IP injection” value is reported as “very high bioavailability” and the “course of plasma concentration” value is reported as “fast reduction of concentration during the first hour”. The “concentration in plasma of mouse injected twice with 10 min interval versus mice injected once” value in data set [6] (one mouse injected twice) is on record as over 4 times. In addition, the “tumors of mice that died on the 5th day” value in [7] (two mice, injected only one day) is recorded as “almost undetectable tumors”. Also, in data set [9] (50 mg/kg, IP), the “Liver” value is 50 nM and the “Tumor concentration” value lay in the range of 0 to 90 nM. In [9] (48 hours after treatment), this compound displayed a Tumor concentration of 84 nM and a liver concentration of 49 nM. For the same compound, in data set [9] (mice euthanized at 48 hours after treatment), the plasma concentration result is “The same plasma concentration”. In [9] (setting [13]), the drug in liver result is “no drug detected”, the drug in tumor result is reported as “no drug detected” and the plasma concentration is 8.5 nM. Also, in data set [10], the deaths of mice was 2 mice died next day and 3 other during next 5 days; the toxicity after injection result was “acute toxicity developed quickly after injection, symptoms suggested acute liver failure”.
As for `O=C1NCCOc2c1ccc1c2c2ccccc2n1CCCF` [PLA1163], the solubility result in data set [5] is recorded as “poorly soluble”. Also, the CC50 in data set [8] amounted to 0.2 µM. In [9] (40 mg/kg, IP), the “Liver” value is 307 nM and the “Tumor concentration” value was 4 to 10 nM.
`O=c1[nH]ccc2c1ccc1c2c2ncccc2n1CCCF` [PLA1181]: the “Aqueous Solubility Classification” value in [11] was “Low”.
On to `O=c1[nH]c2ccc3c(c4ccccc4n3CCCF)c2o1` [PLA1190], for which the “left after 30 minute incubation with mouse liver microsome” value in [12] came out at 70%. Further, in [11], the “Aqueous Solubility Classification” value was “Low” and the “Aqueous Solubility (pH 7.4)” value came to 3.5 μM.
Consider `CC(=O)c1ccc2c(c1)c1c(C(N)=O)cccc1n2CCCF` [PLA1191], for which, in [11], the “Aqueous Solubility Classification” value is “High” and the “Aqueous Solubility (pH 7.4)” value came out at 130 μM.
In the same order, the values of `O=c1c2ccc3c(c2ccn1CCO)c1ccccc1n3CCCF` [PLA1192] are “Moderate” and 15 μM.
In the same order, the values of `O=c1c2ccc3c(c2ccn1CCN1CCCC1)c1ccccc1n3CCCF` [PLA1193] are “High” and 140 μM.
As to `CN1Cc2c(ccc3c2c2ccccc2n3CCC(F)F)C1=O` [PLA1194], in [11], the “Aqueous Solubility Classification” value is given as “Moderate” and the “Aqueous Solubility (pH 7.4)” value is on record as 18 μM.
Regarding `N#Cc1cccc2c1c1c3cc[nH]c(=O)c3ccc1n2CCCF` [PLA1195], in data set [11], the “Aqueous Solubility Classification” value is “Low” and the “Aqueous Solubility (pH 7.4)” value was determined as 2.7 μM.
In the same order, the values of `NC(=O)c1cccc2c1c1c3cc[nH]c(=O)c3ccc1n2CCCF` [PLA1196] are “Moderate” and 26 μM.
`O=C1CCc2c1ccc1c2c2c(F)cccc2n1CCCF` [PLA1197]: in data set [12], the “left after 30 minute incubation with mouse liver microsome” value came out at 77%. Moreover, in data set [11], the “Aqueous Solubility Classification” value was “Low” and the “Aqueous Solubility (pH 7.4)” value was determined as 4.0 μM.
On to `CC(=O)c1ccc2c(c1)c1c3c(ccc1n2CCCF)C(=O)CC3` [PLA1198], for which, in data set [11], the “Aqueous Solubility Classification” value is reported as “Low” and the “Aqueous Solubility (pH 7.4)” value stood at 2.5 μM.
As to `O=C1CCc2c1ccc1c2c2cc(Br)ccc2n1CCCF` [PLA1199], in data set [11], the “Aqueous Solubility Classification” value is “Low” and the “Aqueous Solubility (pH 7.4)” value is 2.3 μM.
